Results: patent US20040133938A1, “Use of lipoic acid in plant culture media” (priority 2002, published 2004)

Tested on: MicroTom cotyledon explants
Test: MicroTom Agrobacterium transformation: shoot regeneration, transformation efficiency, escapes
Format: cell-based, Lycopersicon esculentum
Details: for % of explants producing shoots (>1 cm in length): selection medium; for % of shoots that were escapes (did not root on selection medium): kanamycin selection
Protocol: This example describes the use of lipoic acid in an Agrobacterium-based tomato transformation process. MicroTom (a cultivar of tomato species: Lycopersicon esculentum) seeds from Tomato Growers (Ball Seed Co., West Chicago, Ill. USA) were surface-sterilized by first soaking for 10 min in sterile deionized water, removing the water, and then adding enough 70% ethanol to immerse the seeds for 1 min while stirring vigorously and then aspirating the ethanol. The seeds were rinsed 2× with sterile deionized water and then soaked in 25% Chlorox with 1-2 drops of Tween 20 for 10 min while stirring frequently. The seeds were rinsed 3× with sterile deionized water. The seeds were germinated in phytatrays containing Davis Germination medium (4.3 g/L MS salts, 2 ml/L Gamborg's B-5 500× salts, 20 g/L sucrose and 10 g/L agar) (approximately 120 seeds/container), and the phytatrays were wrapped with aluminum foil. The phytatray cultures were maintained at 28° C. under the dark for 5 days. After 5 days, the phytatray cultures were unwrapped and grown at 24° C. under a 16 h photoperiod for about 44 h.
Agrobacterium containing the desired transformation vector with a selectable marker (nptII for kanamycin selection as shown in FIG. 1) was streaked on a fresh LBssck plate (LB, 200 mL; spectinomycin (50 mg/mL stock), 200 μL; streptomycin (50 mg/mL stock), 200 μL; kanamycin (50 mg/mL stock), 200 μL; chloramphenicol (CAP, 25 mg/mL stock), 200 μL) from a frozen glycerol stock, and grown at about 28° C. for 3-4 days. One day before inoculation, a loopful of the bacterium cells from the freshly streaked plate was inoculated into 2 mL of LB+(LB, 200 mL; spectinomycin or streptomycin (50 mg/mL stock), 400 μL; kanamycin (50 mg/mL stock), 200 μL; chloramphenicol (CAP, 25 mg/mL stock), 200 μL) without acetosyringone, and grown at about 28° C. on a rotator at the speed between medium to high overnight. Then, 0.2 mL of the overnight bacterium culture was inoculated into 2 mL of LB+0.2 mM acetosyringone, and grown at about 28° C. on a rotator at the speed between medium to high for 4 hours.
Four hours after the sub-culture, the bacterium growth phase was measured using the spectrophotometer. The final O.D.660 of the bacterium culture was between about 0.9 and 1.4. The bacterium culture was diluted by adding the bacterium culture to TXD medium in a sterile tube based on the volume to get the working O.D.660=0.1.
Cotyledon explants were isolated from seedlings 7 days after sowing seeds on Davis Germination medium. Cotyledon explants were prepared by bathing them in 6 mL of TXD liquid medium (4.3 g/L MS salts, 2 mL/L Gamborg's B-5 500× salts, 4 mg/L pCPA (p-chlorophenoxyactic acid), 0.005 mg/L kinetin, and 30 g/L sucrose) to prevent desiccation and trimming them at both ends using a #15 feather blade. Immediately after the trimming, the cotyledon explants were gently placed on “feeder plates” containing UC2PC medium (2.2 g/L MS salts, 2.2 mL/L, Gamborg's B-5 500× salts, 0.2 mg/L 2,4-D, 4 mg/L pCPA, 0.1 mg/L kinetin, 30 g/L sucrose, 0.2 g/L potassium phosphate, 10 g/L agar, 8 mL/L acetosyringone (4.91 mg/mL), and 4 mL galacturonic acid (53.05 mg/mL)). The “feeder plates” are made by overlaying 2 mL of tobacco suspension cells and a sterile Whatman filter on the plates containing UC2PC medium. The cotyledon explants were gently poked with a sharp forceps (ASIM5311, Stainless French, made in Switzerland). Usually six to ten pokes were made per explant depending the size of cotyledons. Right after poking, the cotyledons were inoculated with Agrobacterium containing pMON15715 (FIG. 1) by adding 3 mL of the adjusted Agrobacterium solution on top of the cotyledons. The plates were incubated for 10 min at room temperature, and the Agrobacterium solution was aspirated with a sterile pipette. The cotyledons were then co-cultured for 2 days at 23-24° C. under a 16-h photoperiod. […]

## O=C(O)CCCCC1CCSS1 (stereo not drawn) [lipoic acid, 1,2-dithiolane-3-pentanoic acid]
5 μM lipoic acid, 45 explants
  % of explants producing shoots (>1 cm in length): 68.9%
5 μM lipoic acid, MicroTom
  % of resp. explant producing transgenic plants: 78.6%
  % of transgenic plants/shoot: 43.9%
  Efficiency (stable transformation efficiency, percentage of transgenic plants produced per explant): 155.1%
  No. of total shoots produced/explant: 3.53
  No. of total shoots produced/resp. explant: 4.93
  No. of transgenic plants produced/resp. explant: 2.25
  TE (percentage of transgenic events produced per explant): 78.3%
5 μM lipoic acid
  % of shoots that were escapes (did not root on selection medium): 54.6%
10 μM lipoic acid, 46 explants
  % of explants producing shoots (>1 cm in length): 67.4%
10 μM lipoic acid, MicroTom
  % of resp. explant producing transgenic plants: 74.2%
  % of transgenic plants/shoot: 42.9%
  Efficiency (stable transformation efficiency, percentage of transgenic plants produced per explant): 178.7%
  No. of total shoots produced/explant: 4.17
  No. of total shoots produced/resp. explant: 6.19
  No. of transgenic plants produced/resp. explant: 2.65
  TE (percentage of transgenic events produced per explant): 94.1%
10 μM lipoic acid
  % of shoots that were escapes (did not root on selection medium): 58.3%
50 μM lipoic acid, 49 explants
  % of explants producing shoots (>1 cm in length): 61.2%
50 μM lipoic acid, MicroTom
  % of resp. explant producing transgenic plants: 67.9%
  % of transgenic plants/shoot: 48.0%
  Efficiency (stable transformation efficiency, percentage of transgenic plants produced per explant): 144.1%
  No. of total shoots produced/explant: 3.00
  No. of total shoots produced/resp. explant: 4.83
  No. of transgenic plants produced/resp. explant: 2.35
  TE (percentage of transgenic events produced per explant): 76.4%
50 μM lipoic acid
  % of shoots that were escapes (did not root on selection medium): 55.4%
100 μM lipoic acid, 43 explants
  % of explants producing shoots (>1 cm in length): 25.6%
100 μM lipoic acid, MicroTom
  % of resp. explant producing transgenic plants: 93.8%
  % of transgenic plants/shoot: 50.6%
  Efficiency (stable transformation efficiency, percentage of transgenic plants produced per explant): 112.1%
  No. of total shoots produced/explant: 2.21
  No. of total shoots produced/resp. explant: 8.64
  No. of transgenic plants produced/resp. explant: 4.38
  TE (percentage of transgenic events produced per explant): 49.7%
100 μM lipoic acid
  % of shoots that were escapes (did not root on selection medium): 57.1%
Lipoic acid from 5 μM to 50 μM
  effect on total transgenic and non-transgenic shoot induction: no inhibition effect
summary, MicroTom, from 40%
  increase of the stable transformation efficiency: 6.5 fold
summary, MicroTom, with lipoic acid
  stable transformation efficiency: up to 260%
